pKd: −log10 of the molar value. Active and inactive are the calls of the source. Rule as the data show it, for most assays here: actives have a measured Kd and inactives only a lower limit.
Assays:
[1] = target: T1, Glycine--tRNA ligase (Homo sapiens, UniProt P41250)
T1 sequence (P41250 whole entry): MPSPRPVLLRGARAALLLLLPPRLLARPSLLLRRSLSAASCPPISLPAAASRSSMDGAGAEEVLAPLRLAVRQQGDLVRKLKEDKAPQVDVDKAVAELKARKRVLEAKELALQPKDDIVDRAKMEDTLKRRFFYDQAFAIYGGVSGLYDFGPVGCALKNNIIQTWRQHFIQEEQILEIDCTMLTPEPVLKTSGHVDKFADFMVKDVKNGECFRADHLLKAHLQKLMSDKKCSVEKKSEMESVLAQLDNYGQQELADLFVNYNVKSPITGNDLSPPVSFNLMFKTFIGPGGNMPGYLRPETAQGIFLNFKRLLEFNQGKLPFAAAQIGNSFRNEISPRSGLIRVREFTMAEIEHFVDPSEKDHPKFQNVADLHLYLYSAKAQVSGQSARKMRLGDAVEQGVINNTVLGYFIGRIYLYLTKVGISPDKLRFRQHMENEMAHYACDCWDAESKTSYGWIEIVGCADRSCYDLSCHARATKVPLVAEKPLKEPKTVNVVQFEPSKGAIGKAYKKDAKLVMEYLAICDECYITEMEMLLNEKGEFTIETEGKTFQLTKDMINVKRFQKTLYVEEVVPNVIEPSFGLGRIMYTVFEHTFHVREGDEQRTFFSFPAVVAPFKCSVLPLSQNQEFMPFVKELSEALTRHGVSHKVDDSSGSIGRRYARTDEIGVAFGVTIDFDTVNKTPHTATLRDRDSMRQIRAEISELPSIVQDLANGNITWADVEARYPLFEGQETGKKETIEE

[2] = target: Tyrosine-protein kinase BTK (Homo sapiens, UniProt Q06187)
[3] = target: Tyrosine-protein kinase ABL1 (Homo sapiens, UniProt P00519)
[4] = target: Atypical kinase COQ8A, mitochondrial (Homo sapiens, UniProt Q8NI60)
[5] = target: T2, Rab-like protein 3 (Homo sapiens, UniProt Q5HYI8)
T2 sequence (Q5HYI8 whole entry): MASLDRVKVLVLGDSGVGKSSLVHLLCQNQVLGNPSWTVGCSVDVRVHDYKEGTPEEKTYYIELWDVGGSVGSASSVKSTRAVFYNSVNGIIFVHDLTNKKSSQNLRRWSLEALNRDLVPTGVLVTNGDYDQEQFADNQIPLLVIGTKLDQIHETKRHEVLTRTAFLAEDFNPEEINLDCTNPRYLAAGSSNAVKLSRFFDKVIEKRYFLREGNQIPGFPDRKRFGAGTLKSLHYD

[6] = target: Serine/threonine-protein kinase MRCK gamma (Homo sapiens, UniProt Q6DT37)
[7] = target: Dual specificity mitogen-activated protein kinase kinase 1 (Homo sapiens, UniProt Q02750)
[8] = target: Serine/threonine-protein kinase SIK3 (Homo sapiens, UniProt Q9Y2K2)
[9] = target: Dual specificity tyrosine-phosphorylation-regulated kinase 1A (Homo sapiens, UniProt Q13627)
[10] = target: Tyrosine-protein kinase Fer (Homo sapiens, UniProt P16591)
[11] = target: Protein kinase C beta type (Homo sapiens, UniProt P05771)
[12] = target: Bone morphogenetic protein receptor type-1A (Homo sapiens, UniProt P36894)
[13] = target: Ephrin type-A receptor 2 (Homo sapiens, UniProt P29317)
[14] = target: Ephrin type-A receptor 5 (Homo sapiens, UniProt P54756)
[15] = target: Dual specificity protein kinase CLK2 (Homo sapiens, UniProt P49760)
[16] = target: T3, Serine/threonine-protein kinase TBK1 (Homo sapiens, UniProt Q9UHD2)
T3 sequence (Q9UHD2 whole entry): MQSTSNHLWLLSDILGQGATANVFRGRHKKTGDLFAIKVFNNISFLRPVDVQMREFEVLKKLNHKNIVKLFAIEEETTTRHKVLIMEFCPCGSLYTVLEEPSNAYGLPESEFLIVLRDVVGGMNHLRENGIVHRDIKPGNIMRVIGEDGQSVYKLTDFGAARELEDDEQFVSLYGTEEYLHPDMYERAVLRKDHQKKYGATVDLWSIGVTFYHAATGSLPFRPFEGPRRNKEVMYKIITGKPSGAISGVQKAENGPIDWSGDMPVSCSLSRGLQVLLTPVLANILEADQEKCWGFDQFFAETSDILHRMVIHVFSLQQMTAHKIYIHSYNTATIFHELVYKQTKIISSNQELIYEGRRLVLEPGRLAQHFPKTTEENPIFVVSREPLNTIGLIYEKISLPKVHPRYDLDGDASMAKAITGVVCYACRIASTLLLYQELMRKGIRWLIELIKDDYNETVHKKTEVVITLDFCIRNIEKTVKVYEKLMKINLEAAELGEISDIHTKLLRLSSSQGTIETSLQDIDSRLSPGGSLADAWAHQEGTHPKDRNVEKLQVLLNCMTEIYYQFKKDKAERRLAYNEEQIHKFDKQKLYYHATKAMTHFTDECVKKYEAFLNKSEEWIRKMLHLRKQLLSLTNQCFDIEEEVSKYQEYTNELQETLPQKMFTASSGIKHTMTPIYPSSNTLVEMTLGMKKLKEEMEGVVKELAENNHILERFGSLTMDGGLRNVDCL

[17] = target: T4, Adenine phosphoribosyltransferase (Homo sapiens, UniProt P07741)
T4 sequence (P07741 whole entry): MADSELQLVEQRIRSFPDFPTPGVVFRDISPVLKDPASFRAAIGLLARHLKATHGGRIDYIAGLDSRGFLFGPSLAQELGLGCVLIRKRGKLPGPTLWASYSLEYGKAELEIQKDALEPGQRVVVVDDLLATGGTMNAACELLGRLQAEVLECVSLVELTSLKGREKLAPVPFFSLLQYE
Also: in the data inactive means no Kd found up to 30 µM.

Chain of Serine/threonine-protein kinase SIK3 (Q9Y2K2 whole entry): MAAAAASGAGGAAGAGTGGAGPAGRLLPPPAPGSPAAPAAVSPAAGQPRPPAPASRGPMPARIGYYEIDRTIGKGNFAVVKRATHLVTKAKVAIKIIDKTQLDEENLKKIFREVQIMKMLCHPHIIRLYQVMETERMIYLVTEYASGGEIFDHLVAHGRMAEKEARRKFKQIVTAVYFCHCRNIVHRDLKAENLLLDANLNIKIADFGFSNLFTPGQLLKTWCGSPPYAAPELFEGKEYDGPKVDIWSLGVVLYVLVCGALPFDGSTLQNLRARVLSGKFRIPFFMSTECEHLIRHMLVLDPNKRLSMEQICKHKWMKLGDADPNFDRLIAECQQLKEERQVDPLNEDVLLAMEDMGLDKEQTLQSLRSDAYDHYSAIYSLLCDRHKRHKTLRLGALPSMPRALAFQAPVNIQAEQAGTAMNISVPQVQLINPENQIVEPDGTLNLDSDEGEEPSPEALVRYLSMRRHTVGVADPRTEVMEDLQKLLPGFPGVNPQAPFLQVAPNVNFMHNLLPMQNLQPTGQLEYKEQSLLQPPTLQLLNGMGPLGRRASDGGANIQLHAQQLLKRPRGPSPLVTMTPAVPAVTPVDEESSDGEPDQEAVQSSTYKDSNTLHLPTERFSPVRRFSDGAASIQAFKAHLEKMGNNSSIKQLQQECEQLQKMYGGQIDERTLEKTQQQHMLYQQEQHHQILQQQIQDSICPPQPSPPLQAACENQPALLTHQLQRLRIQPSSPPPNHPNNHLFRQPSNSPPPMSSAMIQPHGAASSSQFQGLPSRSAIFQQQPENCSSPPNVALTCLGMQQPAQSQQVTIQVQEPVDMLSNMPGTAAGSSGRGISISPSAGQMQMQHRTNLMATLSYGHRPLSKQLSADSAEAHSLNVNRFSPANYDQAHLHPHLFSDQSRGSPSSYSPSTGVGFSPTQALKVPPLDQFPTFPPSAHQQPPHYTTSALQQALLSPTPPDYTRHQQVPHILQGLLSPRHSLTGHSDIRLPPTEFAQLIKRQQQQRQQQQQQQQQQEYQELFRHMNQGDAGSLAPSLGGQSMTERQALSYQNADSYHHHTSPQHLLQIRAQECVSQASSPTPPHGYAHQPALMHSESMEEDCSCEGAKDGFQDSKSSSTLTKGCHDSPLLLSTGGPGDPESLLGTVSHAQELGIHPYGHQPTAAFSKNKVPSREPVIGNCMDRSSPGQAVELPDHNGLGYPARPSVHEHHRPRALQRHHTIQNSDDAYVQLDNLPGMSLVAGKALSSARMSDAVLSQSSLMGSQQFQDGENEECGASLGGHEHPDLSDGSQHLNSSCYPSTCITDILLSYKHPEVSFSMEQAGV
Chain of Serine/threonine-protein kinase MRCK gamma (Q6DT37 whole entry): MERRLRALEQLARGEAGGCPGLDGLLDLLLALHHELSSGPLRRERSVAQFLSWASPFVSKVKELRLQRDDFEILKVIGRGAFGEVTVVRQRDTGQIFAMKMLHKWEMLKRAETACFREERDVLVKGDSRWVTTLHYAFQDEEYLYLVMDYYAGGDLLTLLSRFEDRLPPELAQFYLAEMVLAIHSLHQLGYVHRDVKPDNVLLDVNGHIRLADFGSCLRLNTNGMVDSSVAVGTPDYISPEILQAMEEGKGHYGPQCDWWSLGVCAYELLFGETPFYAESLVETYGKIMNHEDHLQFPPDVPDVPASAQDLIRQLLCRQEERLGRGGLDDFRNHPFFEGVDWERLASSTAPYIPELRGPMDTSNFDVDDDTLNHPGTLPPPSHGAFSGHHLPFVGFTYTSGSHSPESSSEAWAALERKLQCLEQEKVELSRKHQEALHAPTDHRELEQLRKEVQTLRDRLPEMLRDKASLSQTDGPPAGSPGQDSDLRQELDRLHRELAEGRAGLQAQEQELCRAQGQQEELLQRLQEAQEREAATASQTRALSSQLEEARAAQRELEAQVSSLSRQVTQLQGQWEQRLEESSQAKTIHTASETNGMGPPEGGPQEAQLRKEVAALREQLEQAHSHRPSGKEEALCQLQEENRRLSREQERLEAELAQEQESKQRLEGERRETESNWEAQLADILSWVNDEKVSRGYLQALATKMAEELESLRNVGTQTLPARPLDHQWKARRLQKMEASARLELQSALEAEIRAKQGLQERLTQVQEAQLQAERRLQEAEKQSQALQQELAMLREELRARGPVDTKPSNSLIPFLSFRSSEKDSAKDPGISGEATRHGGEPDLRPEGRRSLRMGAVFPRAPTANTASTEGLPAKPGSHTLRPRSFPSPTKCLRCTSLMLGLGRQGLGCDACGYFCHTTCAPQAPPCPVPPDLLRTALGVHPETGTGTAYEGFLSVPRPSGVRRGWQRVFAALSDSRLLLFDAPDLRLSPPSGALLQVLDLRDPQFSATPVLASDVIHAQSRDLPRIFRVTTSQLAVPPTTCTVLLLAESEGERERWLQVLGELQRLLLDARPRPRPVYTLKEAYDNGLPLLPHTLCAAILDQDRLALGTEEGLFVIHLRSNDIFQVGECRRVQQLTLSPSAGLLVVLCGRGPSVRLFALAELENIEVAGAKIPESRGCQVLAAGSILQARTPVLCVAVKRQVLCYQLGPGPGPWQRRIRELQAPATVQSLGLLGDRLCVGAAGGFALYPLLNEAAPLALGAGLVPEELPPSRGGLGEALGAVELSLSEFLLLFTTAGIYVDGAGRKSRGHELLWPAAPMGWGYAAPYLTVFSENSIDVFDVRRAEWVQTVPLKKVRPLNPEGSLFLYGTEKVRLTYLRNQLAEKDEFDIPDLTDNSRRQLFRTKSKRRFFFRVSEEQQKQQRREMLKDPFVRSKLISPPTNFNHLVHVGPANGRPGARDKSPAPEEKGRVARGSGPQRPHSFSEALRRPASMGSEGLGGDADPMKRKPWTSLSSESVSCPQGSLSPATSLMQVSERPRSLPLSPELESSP
Chain of Bone morphogenetic protein receptor type-1A (P36894 whole entry): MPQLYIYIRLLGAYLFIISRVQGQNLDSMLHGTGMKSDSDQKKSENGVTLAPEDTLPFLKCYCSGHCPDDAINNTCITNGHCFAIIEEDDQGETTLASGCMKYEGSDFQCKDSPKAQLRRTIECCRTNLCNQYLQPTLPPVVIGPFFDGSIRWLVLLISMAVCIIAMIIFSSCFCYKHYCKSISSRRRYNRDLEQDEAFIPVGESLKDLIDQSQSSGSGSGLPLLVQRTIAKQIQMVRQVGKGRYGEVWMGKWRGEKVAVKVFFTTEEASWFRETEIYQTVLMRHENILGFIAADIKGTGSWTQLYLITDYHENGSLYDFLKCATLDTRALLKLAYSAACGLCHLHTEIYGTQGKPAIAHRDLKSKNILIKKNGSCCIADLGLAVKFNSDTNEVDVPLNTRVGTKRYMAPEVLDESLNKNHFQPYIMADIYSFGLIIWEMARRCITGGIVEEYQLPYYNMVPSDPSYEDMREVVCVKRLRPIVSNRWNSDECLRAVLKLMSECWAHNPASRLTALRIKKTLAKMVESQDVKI
Chain of Protein kinase C beta type (P05771 whole entry): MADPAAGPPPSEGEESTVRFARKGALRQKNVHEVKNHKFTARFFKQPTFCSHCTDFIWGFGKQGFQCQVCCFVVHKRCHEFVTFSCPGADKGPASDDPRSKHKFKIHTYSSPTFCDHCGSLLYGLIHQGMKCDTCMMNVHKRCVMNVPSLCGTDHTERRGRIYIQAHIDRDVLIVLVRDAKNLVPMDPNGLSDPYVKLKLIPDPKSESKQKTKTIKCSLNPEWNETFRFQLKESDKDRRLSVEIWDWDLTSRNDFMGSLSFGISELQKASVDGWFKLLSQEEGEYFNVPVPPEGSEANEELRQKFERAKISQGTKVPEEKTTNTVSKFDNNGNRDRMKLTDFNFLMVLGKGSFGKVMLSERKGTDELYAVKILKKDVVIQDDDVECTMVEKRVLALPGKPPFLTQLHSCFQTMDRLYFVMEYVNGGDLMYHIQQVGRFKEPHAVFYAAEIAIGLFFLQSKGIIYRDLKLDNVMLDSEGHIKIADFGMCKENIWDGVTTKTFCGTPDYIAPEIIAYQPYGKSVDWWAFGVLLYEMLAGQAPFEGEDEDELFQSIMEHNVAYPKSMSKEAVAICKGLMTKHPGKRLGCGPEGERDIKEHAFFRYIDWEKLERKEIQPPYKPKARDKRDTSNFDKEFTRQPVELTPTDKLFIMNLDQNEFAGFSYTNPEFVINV
Chain of Atypical kinase COQ8A, mitochondrial (Q8NI60 whole entry): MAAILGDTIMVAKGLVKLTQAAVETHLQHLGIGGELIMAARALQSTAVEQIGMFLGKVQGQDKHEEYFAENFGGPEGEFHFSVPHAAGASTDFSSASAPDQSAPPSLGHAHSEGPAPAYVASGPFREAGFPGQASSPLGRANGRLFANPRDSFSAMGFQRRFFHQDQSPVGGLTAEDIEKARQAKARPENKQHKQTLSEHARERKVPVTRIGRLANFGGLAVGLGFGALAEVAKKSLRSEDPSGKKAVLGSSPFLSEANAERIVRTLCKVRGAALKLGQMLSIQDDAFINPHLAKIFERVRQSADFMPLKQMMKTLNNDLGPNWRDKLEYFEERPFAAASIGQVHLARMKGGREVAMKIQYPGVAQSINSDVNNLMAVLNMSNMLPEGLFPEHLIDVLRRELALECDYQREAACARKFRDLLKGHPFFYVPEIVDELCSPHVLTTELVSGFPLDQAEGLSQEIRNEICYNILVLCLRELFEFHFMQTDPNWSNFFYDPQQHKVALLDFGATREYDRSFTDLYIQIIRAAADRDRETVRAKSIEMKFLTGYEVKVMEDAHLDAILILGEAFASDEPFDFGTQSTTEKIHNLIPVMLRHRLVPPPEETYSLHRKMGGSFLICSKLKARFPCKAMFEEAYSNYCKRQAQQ

Kd [1] | Kd [2] | Kd [3] | Kd [4] | Kd [5] | Kd [6] | Kd [7] | Kd [8] | Kd [9] | Kd [10] | Kd [11] | Kd [12] | Kd [13] | Kd [14] | Kd [15] | Kd [16] | Kd [17] | pKd [4] | Structure (SMILES)
> 30 µM (inactive) | > 30 µM (inactive) | > 30 µM (inactive) | 0.835 µM (active) | > 30 µM (inactive) | > 30 µM (inactive) | 3.33 µM (active) | > 30 µM (inactive) | > 30 µM (inactive) | > 30 µM (inactive) | > 30 µM (inactive) | > 30 µM (inactive) | > 30 µM (inactive) | > 30 µM (inactive) | > 30 µM (inactive) | > 30 µM (inactive) | – | – | Nc1ncnc2c1c(-c1cccc(OCc3ccccc3)c1)cn2[C@H]1C[C@@H](CN2CCC2)C1 [AEW-541]
> 30 µM (inactive) | 0.537 µM (active) | – | > 30 µM (inactive) | > 30 µM (inactive) | > 30 µM (inactive) | > 30 µM (inactive) | 4.11 µM (active) | 2.45 µM (active) | – | 3.38 µM (active) | 0.388 µM (active) | – | > 30 µM (inactive) | > 30 µM (inactive) | – | > 30 µM (inactive) | – | O=C(Nc1c[nH]nc1-c1nc2cc(CN3CCOCC3)ccc2[nH]1)NC1CC1 [AT-9283]
> 30 µM (inactive) | 0.345 µM (active) | > 30 µM (inactive) | > 30 µM (inactive) | > 30 µM (inactive) | > 30 µM (inactive) | > 30 µM (inactive) | > 30 µM (inactive) | > 30 µM (inactive) | > 30 µM (inactive) | > 30 µM (inactive) | > 30 µM (inactive) | > 30 µM (inactive) | > 30 µM (inactive) | > 30 µM (inactive) | > 30 µM (inactive) | – | – | C=CC(=O)Nc1cc2c(Nc3ccc(F)c(Cl)c3)ncnc2cc1C#CC(C)(C)N1CCN(C)CC1 [AV-412 FREE BASE]
> 30 µM (inactive) | > 30 µM (inactive) | – | > 30 µM (inactive) | > 30 µM (inactive) | > 30 µM (inactive) | > 30 µM (inactive) | > 30 µM (inactive) | > 30 µM (inactive) | > 30 µM (inactive) | > 30 µM (inactive) | > 30 µM (inactive) | > 30 µM (inactive) | > 30 µM (inactive) | > 30 µM (inactive) | > 30 µM (inactive) | > 30 µM (inactive) | – | C#Cc1cccc(Nc2ncnc3cc(OC)c(OCCCCCCC(=O)NO)cc23)c1 [CUDC-101]
> 30 µM (inactive) | > 30 µM (inactive) | > 30 µM (inactive) | – | > 30 µM (inactive) | > 30 µM (inactive) | > 30 µM (inactive) | > 30 µM (inactive) | > 30 µM (inactive) | > 30 µM (inactive) | > 30 µM (inactive) | > 30 µM (inactive) | > 30 µM (inactive) | > 30 µM (inactive) | > 30 µM (inactive) | > 30 µM (inactive) | – | 4.91 | Cc1cccc(-c2nn3c(c2-c2ccnc4ccc(C(N)=O)cc24)CCC3)n1 [GALUNISERTIB]
> 30 µM (inactive) | > 30 µM (inactive) | > 30 µM (inactive) | > 30 µM (inactive) | > 30 µM (inactive) | > 30 µM (inactive) | > 30 µM (inactive) | > 30 µM (inactive) | > 30 µM (inactive) | > 30 µM (inactive) | > 30 µM (inactive) | > 30 µM (inactive) | > 30 µM (inactive) | > 30 µM (inactive) | > 30 µM (inactive) | > 30 µM (inactive) | – | – | NC1(c2ccc(-c3nc4ccn5c(=O)[nH]nc5c4cc3-c3ccccc3)cc2)CCC1 [MK-2206]
> 30 µM (inactive) | > 30 µM (inactive) | > 30 µM (inactive) | > 30 µM (inactive) | > 30 µM (inactive) | > 30 µM (inactive) | > 30 µM (inactive) | > 30 µM (inactive) | > 30 µM (inactive) | > 30 µM (inactive) | > 30 µM (inactive) | > 30 µM (inactive) | > 30 µM (inactive) | > 30 µM (inactive) | > 30 µM (inactive) | > 30 µM (inactive) | – | – | Cn1cc(-c2cnc3ccc4ccc(CS(=O)(=O)NCc5ccccn5)cc4c(=O)c3c2)cn1 [MK-8033]
> 30 µM (inactive) | > 30 µM (inactive) | > 30 µM (inactive) | > 30 µM (inactive) | > 30 µM (inactive) | > 30 µM (inactive) | > 30 µM (inactive) | > 30 µM (inactive) | > 30 µM (inactive) | > 30 µM (inactive) | > 30 µM (inactive) | > 30 µM (inactive) | > 30 µM (inactive) | > 30 µM (inactive) | > 30 µM (inactive) | > 30 µM (inactive) | – | – | FC(F)(F)c1ccc(/C=C/c2nc(COc3ccc(CCCCn4ccnn4)cc3)co2)cc1 [MUBRITINIB]

Structure (SMILES) | Kd [1] | Kd [2] | Kd [3] | Kd [4] | Kd [5] | Kd [6] | Kd [7] | Kd [8] | Kd [9] | Kd [10] | Kd [11] | Kd [12] | Kd [13] | Kd [14] | Kd [15] | Kd [16] | Kd [17] | pKd [4]
CC(C)(C)c1nc(-c2cccc(NS(=O)(=O)c3c(F)cccc3F)c2F)c(-c2ccnc(N)n2)s1 [DABRAFENIB] | > 30 µM (inactive) | – | – | > 30 µM (inactive) | > 30 µM (inactive) | > 30 µM (inactive) | > 30 µM (inactive) | 2 µM (active) | – | > 30 µM (inactive) | > 30 µM (inactive) | > 30 µM (inactive) | > 30 µM (inactive) | – | > 30 µM (inactive) | > 30 µM (inactive) | > 30 µM (inactive) | –
O=C(Nc1cc(C(F)(F)F)cc(C(F)(F)F)c1)c1cc(Cl)ccc1O [IMD-0354] | > 30 µM (inactive) | > 30 µM (inactive) | > 30 µM (inactive) | > 30 µM (inactive) | > 30 µM (inactive) | > 30 µM (inactive) | > 30 µM (inactive) | > 30 µM (inactive) | > 30 µM (inactive) | > 30 µM (inactive) | > 30 µM (inactive) | > 30 µM (inactive) | > 30 µM (inactive) | > 30 µM (inactive) | > 30 µM (inactive) | > 30 µM (inactive) | – | –

From ChEMBL document CHEMBL3991601, “The target landscape of clinical kinase drugs” (Science, 2017)
